Results on 7 molecules are retold here after ChEMBL document CHEMBL3244182, “Potential bis-alkylating agents for cancer chemotherapy. Approaches to the synthesis of 2-sulfonyl-1,4-bis(methanesulfonoxy)butanes” (1978).

≈ marks a conversion by molar mass, not a printed value. Calls of active or inactive are those of the source. The rule behind the calls is not given here.

Test [1] relates to L1210. In words: In vivo antitumor activity against mouse L1210 cells allografted in BDF1 mouse at 200 mg/kg, ip administered as nine doses as suspension in saline with Tween 80. It counts as functional, organism-based. Details: dose 200 mg/kg.
For test [2], the system named is L1210. In words: In vivo antitumor activity against mouse L1210 cells allografted in BDF1 mouse at 400 mg/kg, ip administered as single dose as suspension in CMC. The class given is functional, organism-based. Details: dose 400 mg/kg.
Test [3] relates to L1210. Put plainly: In vivo antitumor activity against mouse L1210 cells allografted in BDF1 mouse at 400 mg/kg, ip administered as single dose as suspension in saline. The class given is functional, organism-based. Details: dose 400 mg/kg.
In test [4] the test system is P388. Put plainly: In vivo antitumor activity against mouse P388 cells allografted in CDF1 mouse at 200 mg/kg, ip administered as nine doses as suspension in klucel. Details: dose 200 mg/kg. It counts as functional, organism-based.
In test [5] the test system is L1210. Put plainly: In vivo antitumor activity against mouse L1210 cells allografted in BDF1 mouse at 400 mg/kg, ip administered as three doses as suspension in klucel. The class given is functional, organism-based. Set-up: dose 400 mg/kg.
Test [6] concerns KB. In words: In vitro antitumor activity against human KB cells treated as an alcoholic solution. The class given is functional. Conditions: read-out: ED50 (the source's name).
In test [7] the test system is P388. Put plainly: In vivo antitumor activity against mouse P388 cells allografted in BDF1 mouse at 400 mg/kg, ip administered as three doses as suspension in klucel. Set-up: dose 400 mg/kg. It counts as functional, organism-based.
For test [8], the system named is L1210. In words: In vivo antitumor activity against mouse L1210 cells allografted in BDF1 mouse at 400 mg/kg, ip administered as nine doses as suspension in klucel. The class given is functional, organism-based. Set-up: dose 400 mg/kg.

Take `CS(=O)(=O)OCCC(COS(C)(=O)=O)S(=O)(=O)CCCOc1ccccc1-c1ccccc1` (racemic): in test [1], the result was inactive. `CS(=O)(=O)OCCC(COS(C)(=O)=O)S(=O)(=O)c1ccccc1` (racemic): the result in test [2] was inactive. For `CCCCS(=O)(=O)C(CCOS(C)(=O)=O)COS(C)(=O)=O` (racemic), the outcome in test [3] was inactive.

For `COc1ccccc1C(=O)Nc1cc2c(cc1N1CCNCC1C)n(C)c(=O)n2C` (racemic), the outcome in test [4] was inactive.

Take `CS(=O)(=O)OCCC(COS(C)(=O)=O)S(=O)(=O)Cc1ccccc1` (racemic): in test [3], the outcome was inactive. For `CCCCCCCCCCCS(=O)(=O)C(CCOS(C)(=O)=O)COS(C)(=O)=O` (racemic), the outcome in test [5] and in test [7] was inactive. Besides, the EC50 in test [6] was found to be 31 µg/mL (≈ 66.7 µM). `COc1ccc(OCCS(=O)(=O)C(CCOS(C)(=O)=O)COS(C)(=O)=O)cc1` (racemic): the outcome in test [8] was inactive.
